The test system of assay [1] is Epidermal growth factor receptor (Homo sapiens), P00533 [UNDEFINED MUTATION]. Briefly: Inhibition of EGFR del19 mutant (unknown origin) assessed as fold change.
Assay [2] addresses Epidermal growth factor receptor (Homo sapiens, UniProt P00533, EX19DEL). Put plainly: Inhibition of EGFR del19 mutant in human HCC827 cells. The class given is cell-based.
The target of assay [3] is T1, Epidermal growth factor receptor (Homo sapiens, UniProt P00533). Briefly: Inhibition of EGFR in human NCI-H1975 cells. The class given is cell-based.
T1 sequence (P00533 whole entry): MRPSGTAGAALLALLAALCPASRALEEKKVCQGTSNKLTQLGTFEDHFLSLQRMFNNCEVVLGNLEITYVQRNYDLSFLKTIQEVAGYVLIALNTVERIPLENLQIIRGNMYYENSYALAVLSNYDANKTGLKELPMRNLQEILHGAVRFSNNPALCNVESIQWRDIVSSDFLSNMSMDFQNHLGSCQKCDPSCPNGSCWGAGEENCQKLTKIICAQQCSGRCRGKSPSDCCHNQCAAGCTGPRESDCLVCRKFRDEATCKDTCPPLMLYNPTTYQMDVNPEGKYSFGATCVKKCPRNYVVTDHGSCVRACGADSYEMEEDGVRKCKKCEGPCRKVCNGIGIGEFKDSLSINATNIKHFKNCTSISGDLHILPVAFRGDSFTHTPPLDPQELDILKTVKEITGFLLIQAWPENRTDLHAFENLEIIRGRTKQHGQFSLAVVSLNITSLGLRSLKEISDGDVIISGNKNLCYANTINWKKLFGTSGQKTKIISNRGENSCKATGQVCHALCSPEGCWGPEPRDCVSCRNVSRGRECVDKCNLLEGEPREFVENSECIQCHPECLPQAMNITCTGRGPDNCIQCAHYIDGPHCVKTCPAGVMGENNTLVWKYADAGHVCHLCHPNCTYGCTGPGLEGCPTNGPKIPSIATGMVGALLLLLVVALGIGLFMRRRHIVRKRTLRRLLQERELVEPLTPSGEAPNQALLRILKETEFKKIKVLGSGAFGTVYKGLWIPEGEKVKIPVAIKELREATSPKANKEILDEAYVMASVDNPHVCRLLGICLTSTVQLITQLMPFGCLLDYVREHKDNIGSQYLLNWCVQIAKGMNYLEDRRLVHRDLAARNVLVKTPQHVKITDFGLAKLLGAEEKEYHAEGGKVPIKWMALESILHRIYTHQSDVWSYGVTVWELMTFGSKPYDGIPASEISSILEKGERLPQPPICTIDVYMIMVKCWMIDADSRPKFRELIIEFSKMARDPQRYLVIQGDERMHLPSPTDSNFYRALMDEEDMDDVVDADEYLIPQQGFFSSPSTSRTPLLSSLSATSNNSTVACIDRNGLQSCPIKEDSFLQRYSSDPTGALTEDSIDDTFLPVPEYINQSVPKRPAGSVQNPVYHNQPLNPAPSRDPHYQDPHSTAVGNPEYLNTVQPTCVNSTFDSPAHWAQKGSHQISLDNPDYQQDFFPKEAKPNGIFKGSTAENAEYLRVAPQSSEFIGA
Assay [4] deals with T1, Epidermal growth factor receptor. Briefly: Inhibition of wild type EGFR in human A549 cells. It counts as cell-based.
The target is the same in assay [5]. Put plainly: Inhibition of wild type EGFR in human A-431 cells. The class given is cell-based.
Assay [6] concerns BaF3. Put plainly: Antiproliferative activity against mouse BaF3 cells transfected with EGFR […]/T790M mutant assessed as inhibition of cell growth. It counts as functional, cell-based.
For assay [7], the system named is NCI-H1975. Put plainly: Antiproliferative activity against human NCI-H1975 cells expressing EGFR T790M mutant assessed as inhibition of EGFR phosphorylation. The class given is functional, cell-based.
Assay [8] deals with NCI-H1975. Briefly: Antiproliferative activity against human NCI-H1975 cells expressing EGFR L858R/T790M mutant assessed as inhibition of cell growth. The class given is functional, cell-based.
In assay [9] the test system is A-431. Put plainly: Antiproliferative activity against human A-431 cells expressing wild type EGFR assessed as inhibition of cell growth. It counts as functional, cell-based.
Assay [10] concerns the target von Hippel-Lindau disease tumor suppressor/Receptor tyrosine-protein kinase erbB-2 (Homo sapiens, UniProt P04626+P40337). Put plainly: PROTAC activity at VHL/HER2 in human SK-BR-3 cells assessed as protein degradation incubated for 24 hrs by immunoblot analysis. The class given is cell-based. (In general: A western blot detects proteins with antibodies after separation by electrophoresis.)

In assay [11] the target is von Hippel-Lindau disease tumor suppressor/Epidermal growth factor receptor (Homo sapiens, UniProt P00533+P40337). Put plainly: PROTAC activity at VHL/EGFR ins20 mutant in human HeLa cells assessed as protein degradation incubated for 24 hrs by immunoblot analysis. The class given is cell-based.
Sequence of von Hippel-Lindau disease tumor suppressor/Epidermal growth factor receptor (P00533 25-1210 limits assumed, stated change not applied): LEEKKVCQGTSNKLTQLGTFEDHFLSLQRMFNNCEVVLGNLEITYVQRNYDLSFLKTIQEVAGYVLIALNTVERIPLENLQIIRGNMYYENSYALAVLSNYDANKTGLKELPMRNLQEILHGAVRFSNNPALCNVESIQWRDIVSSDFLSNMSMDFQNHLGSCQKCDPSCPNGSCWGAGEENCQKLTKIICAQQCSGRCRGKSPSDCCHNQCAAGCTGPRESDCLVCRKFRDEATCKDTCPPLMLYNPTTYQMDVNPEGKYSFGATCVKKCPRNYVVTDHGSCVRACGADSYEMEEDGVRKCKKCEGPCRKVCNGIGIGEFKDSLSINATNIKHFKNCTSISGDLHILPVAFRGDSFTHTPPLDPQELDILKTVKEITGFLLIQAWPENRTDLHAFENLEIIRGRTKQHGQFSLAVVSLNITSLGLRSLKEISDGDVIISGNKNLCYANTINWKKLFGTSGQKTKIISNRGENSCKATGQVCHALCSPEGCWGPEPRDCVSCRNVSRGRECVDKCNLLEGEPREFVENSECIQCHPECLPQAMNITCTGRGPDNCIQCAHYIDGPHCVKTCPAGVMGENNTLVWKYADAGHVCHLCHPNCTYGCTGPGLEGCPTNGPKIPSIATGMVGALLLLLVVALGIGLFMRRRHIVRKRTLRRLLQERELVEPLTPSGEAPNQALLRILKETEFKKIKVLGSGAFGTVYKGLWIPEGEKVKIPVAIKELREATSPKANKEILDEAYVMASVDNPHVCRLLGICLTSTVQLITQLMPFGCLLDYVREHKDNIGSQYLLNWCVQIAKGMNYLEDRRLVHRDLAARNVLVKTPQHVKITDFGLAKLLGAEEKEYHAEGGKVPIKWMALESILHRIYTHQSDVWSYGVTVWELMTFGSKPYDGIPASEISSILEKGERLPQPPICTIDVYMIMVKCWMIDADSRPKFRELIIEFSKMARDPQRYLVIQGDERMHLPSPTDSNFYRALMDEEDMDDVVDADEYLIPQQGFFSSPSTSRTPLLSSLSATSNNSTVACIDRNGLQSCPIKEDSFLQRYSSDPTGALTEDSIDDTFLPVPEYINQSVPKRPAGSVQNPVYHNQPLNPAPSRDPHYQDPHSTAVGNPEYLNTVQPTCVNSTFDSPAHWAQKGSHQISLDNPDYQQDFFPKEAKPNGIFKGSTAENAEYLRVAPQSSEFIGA
Sequence of von Hippel-Lindau disease tumor suppressor/Epidermal growth factor receptor (P40337 whole entry, stated change not applied): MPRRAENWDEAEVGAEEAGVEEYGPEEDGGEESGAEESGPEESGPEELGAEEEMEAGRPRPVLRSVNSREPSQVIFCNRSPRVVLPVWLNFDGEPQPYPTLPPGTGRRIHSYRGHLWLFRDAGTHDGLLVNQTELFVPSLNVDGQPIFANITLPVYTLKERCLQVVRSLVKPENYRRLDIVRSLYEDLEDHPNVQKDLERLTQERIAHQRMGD

Some results are limits rather than exact numbers.

Sequence of Epidermal growth factor receptor (Homo sapiens, UniProt P00533, EX19DEL) (P00533 whole entry, looked up, stated change not applied): as the sequence (P00533 whole entry) above
Sequence of Epidermal growth factor receptor (Homo sapiens), P00533 [UNDEFINED MUTATION] (P00533 whole entry, looked up, stated change not applied): as the sequence (P00533 whole entry) above

Regarding `COc1cc2ncnc(N(Cc3ccc([N+](=O)[O-])cc3)c3ccc(F)c(Cl)c3)c2cc1OCCOCCOCCOCCC(=O)Nc1cccc2c1CN(C1CCC(=O)NC1=O)C2=O` (stereo unspecified), the fold change (FC) in assay [1] amounted to 1000. As to `Cc1ncsc1-c1ccc(CNC(=O)[C@@H]2C[C@@H](O)CN2C(=O)[C@@H](NC(=O)CCCCCCCCCCn2cc(COc3cc4ncnc(Nc5ccc(F)c(Cl)c5)c4cc3NC(=O)/C=C/CN3CCCCC3)nn2)C(C)(C)C)cc1`, the IC50 (commonly the midpoint of a concentration-inhibition curve) in [2] was 6 nM; in assay [3], above 20000 nM; in [4] it was above 20000 nM; in [5], above 20000 nM. For `O=C1CCC(N2C(=O)c3cccc(NCCOCCOCCOCCN4CCN(c5ccc(-c6ccc7c(c6)C(=O)N(C(C(=O)Nc6nccs6)c6ccccc6)C7)cn5)CC4)c3C2=O)C(=O)N1` (stereo unspecified), the IC50 in assay [6] is 96 nM.

Take `CN(C)C/C=C/C(=O)Nc1cc2c(Nc3ccc(F)c(Cl)c3)ncnc2cc1O[C@H]1CCOC1` [AFATINIB]: in assay [7], the IC50 worked out at 93 nM. As for `O=C(Nc1nccs1)C(c1cc(F)ccc1O)N1Cc2ccccc2C1=O` (stereo unspecified), the IC50 stood at 2 nM in assay [8] and 1900 nM in assay [9]. Take `Cc1ncsc1-c1ccc(CNC(=O)[C@@H]2C[C@@H](O)CN2C(=O)[C@@H](NC(=O)COCCOCCOc2ccc(-c3ccc4ncnc(Nc5ccc(OCc6cccc(F)c6)c(Cl)c5)c4c3)cc2)C(C)(C)C)cc1`: the DC50 – broadly, the concentration giving 50% degradation – stood at 102 nM in [10] and 736 nM in [11].

These data come from ChEMBL document CHEMBL5331044, “Recent advances in the development of EGFR degraders: PROTACs and LYTACs” (Eur J Med Chem, 2022).
